The source of these data is patent publication US20240002361A1, “COMPOSITIONS AND METHODS FOR BLOCKING NEUROPILIN RECEPTOR 1 FOR THE TREATMENT OF PAIN AND PREVENTION OF VIRAL ENTRY” (Arizona Board of Regents on Behalf of the University of …, priority 2020, published 2024).

Experiment [1] addresses T1, NRP-1/VEGF-A interaction (Homo sapiens, UniProt O14786).
T1 construct: coated with the extracellular domain of human NRP-1 (containing the a1a2 and the b1b2 regions); purchased Fisher, Hampton, NH 50-101-8343
T1 sequence (O14786 22-856 limits assumed): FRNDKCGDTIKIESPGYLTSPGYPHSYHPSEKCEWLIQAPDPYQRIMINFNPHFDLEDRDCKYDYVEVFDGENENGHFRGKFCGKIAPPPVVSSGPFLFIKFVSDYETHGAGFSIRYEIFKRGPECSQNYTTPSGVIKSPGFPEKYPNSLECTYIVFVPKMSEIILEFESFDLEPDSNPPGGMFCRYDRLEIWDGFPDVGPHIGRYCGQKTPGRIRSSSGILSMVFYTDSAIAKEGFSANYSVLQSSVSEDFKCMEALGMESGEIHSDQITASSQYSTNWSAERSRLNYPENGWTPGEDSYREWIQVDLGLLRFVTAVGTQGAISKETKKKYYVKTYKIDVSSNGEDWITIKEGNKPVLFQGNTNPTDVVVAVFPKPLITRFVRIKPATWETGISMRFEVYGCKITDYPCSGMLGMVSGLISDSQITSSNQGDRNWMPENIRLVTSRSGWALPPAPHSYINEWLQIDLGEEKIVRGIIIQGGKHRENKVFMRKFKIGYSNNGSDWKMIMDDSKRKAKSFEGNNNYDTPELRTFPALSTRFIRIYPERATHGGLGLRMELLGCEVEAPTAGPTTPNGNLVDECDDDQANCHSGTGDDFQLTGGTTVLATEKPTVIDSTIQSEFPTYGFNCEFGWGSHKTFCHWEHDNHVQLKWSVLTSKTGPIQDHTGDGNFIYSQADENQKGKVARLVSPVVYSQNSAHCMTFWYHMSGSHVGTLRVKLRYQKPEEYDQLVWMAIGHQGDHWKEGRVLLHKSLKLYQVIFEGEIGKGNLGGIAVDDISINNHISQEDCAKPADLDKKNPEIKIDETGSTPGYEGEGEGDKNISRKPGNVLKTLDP
Nature of the experiment: ELISA-based NRP1-VEGF-A165 protein binding assay (single concentration). Particulars: compounds 12.5 μM (Spike S1 100 nM), biotinylated VEGF-A165 10 nM; ± standard error of the mean, n = 11.

Experiment [2] has as its system pY1175 VEGFR2. Briefly: In cell Western for detecting inhibition of VEGFR2 activation by VEGF-A165. The format is cell-based, mouse. To be noted: CAD cells.
Experiment [3] has as its target T1, NRP-1/VEGF-A interaction. Nature of the experiment: ELISA-based NRP1-VEGF-A165 protein binding assay (concentration-response, IC50). Particulars: 20 nM biotinylated hVEGF-A165 with 4 μg/ml heparin, n=3, read-out: Calculated IC50 values of inhibiting the NRP-1/VEGF-A interaction. Here is the method: Plates (96-well, Nunc Maxisorp; Thermo Fisher Scientific, Waltham, MA, USA) were coated with human Neuropilin-1-Fc (200 ng per well, Cat #50-101-8343, Fisher, Hampton, NH) and incubated at 4° C. overnight. The following day, the plates were washed and blocked with 3% BSA in PBS to minimize non-specific adsorptive binding to the plates. EG00229 (Cat #6986, Tocris) or the indicated compounds were added at different concentrations and incubated for 30 min at room temperature prior to adding biotinylated human VEGF-A165 (Cat #BT10543-025, R&D systems) at 20 nM with 4 μg/ml of heparin. As a negative control, some wells received PBS containing 3% BSA and as a positive control only hVEGF-A165 was used. The plates were incubated at room temperature with shaking for 2 h. Next, the plates were washed with PBS 0.05% Tween to eliminate unbound protein. Bound biotinylated VEGF was detected by streptavidin-HRP (Cat #016-030-084, Jackson immunoResearch). Tetramethylbenzidine (Cat #DY999, R&D Systems, St. Louis, MO) was used as the colorimetric substrate. The optical density of each well was determined immediately, using a microplate reader (Multiskan Ascent; Thermo Fisher Scientific) set to 450 nm with a correction wavelength of 570 nm. Percentage of inhibition was calculated by the following formula: […]
where S is the optical density measured in the wells with the compounds, N is the optical density measured in the negative control wells and P is the optical density in the positive control wells. The IC50 was calculated using a non-linear regression function with GraphPad Prism Version 9. The data are presented as log (inhibitor) [M] versus normalized response-variable slope. Data are the means±S.E.M. of three independent experiments.
Finally, the ability of the compounds to interfere with the NRP-1NEGF-A interaction was evaluated using an enzyme linked immunosorbent assay (ELISA), as previously described (Moutal, et al., Pain 2021, 12(1), 243-252). Plates were coated with the extracellular domain of human NRP-1 (containing the a1a2 and the b1b2 regions) and the compounds were added to disrupt the NRP-1NEGF-A interaction. The biotinylated human VEGF-A used in the experiments described above (Moutal, et al., Pain 2021, 12(1), 243-252) was discontinued. For the instant studies, biotinylated hVEGF-A (Cat #BT10543-025, R&D systems) was used. Because of that, the known NRP-1 antagonist EG00229 and compound 4 from the above series of inhibitors (Moutal, et al., Pain 2021, 12(1), 243-252) were also tested in the instant studies.

The subject of experiment [4] is VSV-eGFP-SARS-CoV-2. The experiment is classed as cell-based.
The subject of experiment [5] is SNI rats. Briefly: Spared nerve injury (SNI)-induced mechanical allodynia, paw withdrawal threshold. The format is in vivo, rats (Sprague Dawley, male). Particulars: day 21 after surgery, 2.14 mg/5 ml intrathecally, n=5. How it is done: FIG. 8 is a line graph showing antagonism of NRP-1/VEGF-A signaling using compound 4. […] SNI elicited mechanical allodynia 21 days after surgery. Paw withdrawal thresholds for SNI rats (Sprague Dawley, male) administered saline (vehicle) or NRP-1 inhibitor (2.14 mg/5 ml) intrathecally (i.t.); n=5). P values, versus control, are indicated. Data are shown as mean±s.e.m. and were analyzed by non-parametric two-way analysis of variance where time was the within subject factor and treatment was the between subject factor (post hoc: Sidak). The experiments were analyzed by an investigator blinded to the treatment. […]
The assessment of tactile allodynia (i.e., a decreased threshold for paw withdrawal after probing with normally innocuous mechanical stimuli) involved testing the withdrawal threshold of the paw in response to probing with a series of calibrated fine (von Frey) filaments. […] The withdrawal threshold was determined by sequentially increasing and decreasing the stimulus strength (the ‘up and down’ method, and the data analyzed using the nonparametric method of Dixon (as described by Chaplan and Bach, J. Neurosci. Meth. 1994, 53, 55-63) with results expressed as the mean withdrawal threshold. The withdrawal threshold is a level that is statistically significant. Typically, greater than 50% deviation from the baseline could be allodynic.

On to `NC(N)=NCCC[C@H](NC(=O)c1sccc1NS(=O)(=O)c1cccc2nsnc12)C(=O)O` [EG00229, reference compound], for which the Rel % inhibition in experiment [1] came to 33 ± 10%. In experiment [2] (compounds 12.5 μM or Spike 100 nM, 1 nM VEGF-A165, 1 hour), the “inhibition of VEGF-A stimulated increased phosphorylation of VEGFR2 (pY1175)” value was “blocked”. The IC50 in experiment [3] is 1370 µM. In experiment [4], the “inhibition of VSV-eGFP-SARS-CoV-2 antiviral activity” value is on record as “ineffective”.
With `Cc1nc(N2CCOCC2)ncc1-c1cc(=O)[nH]c(Nc2ccccc2)n1` [Compound 4], the Rel % inhibition in experiment [1] is reported as 68 ± 5%. Further, the “inhibition of basal VEGFR2 phosphorylation” value in experiment [2] (absence of stimulation by VEGF-A) is recorded as “showed inhibition”. Moreover, the “reversal of SNI-induced mechanical allodynia (paw withdrawal threshold)” value in experiment [5] is “reverses spared nerve injury (SNI)-induced mechanical allodynia”. In addition, the IC50 in experiment [3] was 8.4 µM.
The molecule `O=C(/C=C/c1ccc(O)c(O)c1)O[C@@H](C(=O)O)[C@@H](O)C(=O)O` [Compound 17] showed a Rel % inhibition in experiment [1] of 12 ± 16%. Also, the “inhibition of VSV-eGFP-SARS-CoV-2 antiviral activity” value in experiment [4] was around 15%.
With `Cc1cc(CN(C)Cc2cc(=O)[nH]c(=O)[nH]2)no1` [Compound 9], in experiment [1], the Rel % inhibition worked out at 43 ± 8%.
`COc1ccccc1Nc1nncc(=O)[nH]1` [Compound 7] yielded a Rel % inhibition in experiment [1] of 18 ± 19%.
